Source: article PMC8802890, “Identification of U937^JAK3-M511I Acute Myeloid Leukemia Cells as a Sensitive Model to JAK3 Inhibitor” (Frontiers in Oncology, 2022)

Assays:
JAK3 = target: T1, JAK3 (Homo sapiens, UniProt P52333); assay: Z'-Lyte kinase assay, JAK3; type: biochemical
T1 construct: purchased Invitrogen (Waltham, MA, USA)
T1 sequence (P52333 1-1124): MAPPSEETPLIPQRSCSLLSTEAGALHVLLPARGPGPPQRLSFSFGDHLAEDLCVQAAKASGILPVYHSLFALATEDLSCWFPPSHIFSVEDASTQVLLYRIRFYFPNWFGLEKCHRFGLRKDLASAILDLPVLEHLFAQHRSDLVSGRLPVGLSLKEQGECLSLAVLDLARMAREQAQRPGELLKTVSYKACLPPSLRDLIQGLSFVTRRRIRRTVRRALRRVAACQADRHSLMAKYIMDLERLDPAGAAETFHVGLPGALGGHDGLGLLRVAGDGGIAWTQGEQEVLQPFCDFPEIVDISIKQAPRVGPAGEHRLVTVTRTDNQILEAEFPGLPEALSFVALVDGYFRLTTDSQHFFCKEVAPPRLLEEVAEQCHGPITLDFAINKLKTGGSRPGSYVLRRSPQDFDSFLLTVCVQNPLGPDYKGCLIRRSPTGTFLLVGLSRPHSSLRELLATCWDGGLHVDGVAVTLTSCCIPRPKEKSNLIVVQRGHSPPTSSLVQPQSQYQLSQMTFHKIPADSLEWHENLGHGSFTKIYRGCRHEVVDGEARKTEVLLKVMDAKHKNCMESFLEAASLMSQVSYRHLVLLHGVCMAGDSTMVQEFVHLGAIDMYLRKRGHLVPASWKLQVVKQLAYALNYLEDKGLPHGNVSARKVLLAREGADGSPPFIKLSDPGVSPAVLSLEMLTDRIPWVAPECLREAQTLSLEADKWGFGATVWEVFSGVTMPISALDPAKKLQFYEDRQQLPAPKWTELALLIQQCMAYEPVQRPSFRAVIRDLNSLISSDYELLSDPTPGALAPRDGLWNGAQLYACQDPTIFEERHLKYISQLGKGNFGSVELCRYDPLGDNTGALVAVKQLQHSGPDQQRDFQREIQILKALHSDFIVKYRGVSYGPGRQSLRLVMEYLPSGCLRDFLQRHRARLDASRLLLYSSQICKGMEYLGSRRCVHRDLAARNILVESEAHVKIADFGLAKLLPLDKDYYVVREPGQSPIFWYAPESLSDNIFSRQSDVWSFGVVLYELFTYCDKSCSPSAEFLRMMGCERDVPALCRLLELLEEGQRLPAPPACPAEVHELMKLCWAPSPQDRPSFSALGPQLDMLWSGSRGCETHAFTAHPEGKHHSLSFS

U937 AML cells = assay: CCK-8 anti-proliferation, U937; settings: for IC50: Homo sapiens, U-937, 72 h, read-out: IC50 Cell line U937
Ba/F3-TEL-JAK1 = assay: CCK-8 anti-proliferation, Ba/F3-TEL-JAK1; type: cell-based, Murine; settings: Mus musculus, CCK-8, 72 h, mean ± SD
Ba/F3-TEL-JAK2 = assay: CCK-8 anti-proliferation, Ba/F3-TEL-JAK2; type: cell-based, Murine; settings: Mus musculus; CCK-8, 72 h; mean ± SD
Ba/F3-JAK3 (M511I) = assay: CCK-8 anti-proliferation, Ba/F3-JAK3 (M511I); type: cell-based, Murine; settings: Mus musculus; CCK-8, 72 h; mean ± SD
Ba/F3 = assay: CCK-8 anti-proliferation, parental Ba/F3; type: cell-based, Murine; settings: Mus musculus, BaF3; parental cells, with IL-3; CCK-8, 72 h; mean ± SD
Daudi = assay: CCK-8 anti-proliferation, Daudi; settings: read-out: IC50 Cell line Daudi; CCK-8, 72 h; mean ± SD
HL-60 = assay: CCK-8 anti-proliferation, HL-60; settings: read-out: IC50 Cell line HL-60; CCK-8, 72 h; mean ± SD
MOLT-4 = assay: CCK-8 anti-proliferation, MOLT-4; settings: read-out: IC50 Cell line MOLT-4; CCK-8, 72 h; mean ± SD
Jurkat = assay: CCK-8 anti-proliferation, Jurkat; settings: read-out: IC50 Cell line Jurkat; CCK-8, 72 h; mean ± SD
MV4-11 = assay: CCK-8 anti-proliferation, MV4-11; settings: read-out: IC50 Cell line MV4-11; CCK-8, 72 h; mean ± SD
OCI-LY3 = assay: CCK-8 anti-proliferation, OCI-LY3; settings: read-out: IC50 Cell line OCI-LY3; CCK-8, 72 h; mean ± SD
JAK1 = target: T2, JAK1 (Homo sapiens, UniProt P23458); assay: Z'-Lyte kinase assay, JAK1; type: biochemical
T2 construct: purchased Invitrogen (Waltham, MA, USA)

U937 cells [1] = assay: Cell cycle analysis by flow cytometry, U937; type: cell-based, human
OCI-LY3 cells = assay: Cell cycle analysis by flow cytometry, OCI-LY3; type: cell-based; settings: PF-06651600 treatment
U937 cells [2] = assay: Apoptosis assay (7-AAD / Annexin V-PE flow cytometry), U937; type: cell-based, human; settings: PF-06651600 treatment
[3] = test system: JAK3-STAT3/5 signal pathway in U937 cells; assay: Western blotting of JAK3-STAT3/5 signal pathway, U937; type: cell-based, human
[4] = test system: JAK3-STAT3/5 signal pathway in Ba/F3-JAK3 M511I cell line; assay: Western blotting of JAK3-STAT3/5 signal pathway, Ba/F3-JAK3 M511I; type: cell-based, Murine
Text: Murine Ba/F3 cells were purchased from DSMZ (Deutsche Sammlung von Mikroorganismen und Zellkulturen). Ba/F3 cell lines stably expressing JAK1 and JAK2 were self-established through electroporation of pCDNA3.1-TEL plasmids. JAK3 (M511I) was produced from pCDNA3.1 plasmids using the Amaxa Cell Line Nucleofector Kit V (Lonza, Cologne, Germany). Stable cell lines were selected by G418 (Merck, NJ, USA) and subsequent withdrawal of IL-3 (R&D, MN, USA). All Ba/F3 stable cell lines were confirmed by positive drug tests, DNA sequencing, and Western blotting (WB) analysis. Parental Ba/F3 cells were maintained in RPMI-1640 supplemented with 10% FBS (Biological Industries) and 1% penicillin-streptomycin (Biological Industries) and 10 ng/ml of IL-3, while all Ba/F3 stable cell lines were cultured in the same medium without IL-3.
Cells at a cell density of 8 × 10^5 cells/ml were treated with different concentrations of compounds or DMSO for the indicated time. The cells were then lysed with 1× SDS sample lysis buffer, as recommended by CST. […] The protein signals were detected with Amersham Imager 600 system (GE, Boston, MA, USA) using an ECL Western blotting detection kit (Thermo Fisher Scientific, Waltham, MA, USA).

T2 sequence (P23458 whole entry): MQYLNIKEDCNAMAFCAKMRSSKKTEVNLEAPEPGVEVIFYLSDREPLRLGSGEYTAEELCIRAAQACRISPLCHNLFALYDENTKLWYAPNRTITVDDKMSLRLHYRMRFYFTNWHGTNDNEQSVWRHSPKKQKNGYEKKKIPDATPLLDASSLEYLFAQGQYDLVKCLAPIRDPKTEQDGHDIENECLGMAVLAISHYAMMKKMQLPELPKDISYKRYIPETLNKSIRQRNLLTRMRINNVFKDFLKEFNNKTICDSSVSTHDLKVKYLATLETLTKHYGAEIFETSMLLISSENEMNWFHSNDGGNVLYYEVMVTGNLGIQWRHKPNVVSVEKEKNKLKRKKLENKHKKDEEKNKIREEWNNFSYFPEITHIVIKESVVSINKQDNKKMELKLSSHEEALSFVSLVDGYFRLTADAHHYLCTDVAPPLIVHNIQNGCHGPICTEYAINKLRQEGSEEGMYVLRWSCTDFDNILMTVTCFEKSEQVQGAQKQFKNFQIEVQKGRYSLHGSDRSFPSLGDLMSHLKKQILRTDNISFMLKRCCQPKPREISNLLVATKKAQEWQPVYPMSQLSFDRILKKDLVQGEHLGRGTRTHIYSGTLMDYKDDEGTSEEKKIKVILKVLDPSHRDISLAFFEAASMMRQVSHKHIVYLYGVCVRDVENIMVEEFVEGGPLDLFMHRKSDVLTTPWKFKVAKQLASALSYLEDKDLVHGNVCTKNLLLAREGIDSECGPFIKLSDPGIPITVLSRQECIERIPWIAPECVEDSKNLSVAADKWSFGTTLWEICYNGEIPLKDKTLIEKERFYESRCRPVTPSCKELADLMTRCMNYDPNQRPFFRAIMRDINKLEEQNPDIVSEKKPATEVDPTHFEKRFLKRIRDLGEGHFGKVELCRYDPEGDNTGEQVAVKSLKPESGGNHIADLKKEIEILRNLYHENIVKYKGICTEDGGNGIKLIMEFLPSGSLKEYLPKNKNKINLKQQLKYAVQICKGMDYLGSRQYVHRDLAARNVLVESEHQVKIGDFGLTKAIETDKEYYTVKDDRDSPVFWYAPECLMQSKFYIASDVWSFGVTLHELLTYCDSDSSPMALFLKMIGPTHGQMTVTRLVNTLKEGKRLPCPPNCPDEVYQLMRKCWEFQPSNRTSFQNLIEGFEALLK

| Compound | JAK3 kinase inhibition (JAK3) | antiproliferative activity against U937 cells (U937 AML cells) | IC50 (Ba/F3-TEL-JAK1) [µM] | IC50 (Ba/F3-TEL-JAK2) [µM] | IC50 (Ba/F3-JAK3 (M511I)) [µM] | IC50 (Ba/F3) [µM] | IC50 (U937 AML cells) [µM] | IC50 (Daudi) [µM] | IC50 (HL-60) [µM] | IC50 (MOLT-4) [µM] | IC50 (Jurkat) [µM] | IC50 (MV4-11) [µM] | IC50 (OCI-LY3) [µM] | also measured |
| --- | --- | --- | --- | --- | --- | --- | --- | --- | --- | --- | --- | --- | --- | --- |
| CCS(=O)(=O)N1CC(CC#N)(n2cc(-c3ncnc4[nH]ccc34)cn2)C1 [Baricitinib] | weakly suppressed the activity of JAK3 | micromolar IC50 values | – | – | – | – | – | – | – | – | – | – | – | – |
| Cc1cnc(Nc2ccc(OCCN3CCCC3)cc2)nc1Nc1cccc(S(=O)(=O)NC(C)(C)C)c1 [Fedratinib] | weakly suppressed the activity of JAK3 | micromolar IC50 values | 1.96 ± 0.24 | 1.83 ± 0.06 | 2.84 ± 0.39 | 3.47 ± 0.33 | 2.53 ± 0.17 | 3.92 ± 0.21 | 2.44 ± 0.16 | 2.72 ± 0.54 | 1.42 ± 0.32 | > 10 | 3.18 ± 0.13 | – |
| O=C(Nc1nc2cccc(-c3ccc(CN4CCS(=O)(=O)CC4)cc3)n2n1)C1CC1 [Filgotinib] | did not obviously suppress JAK3 kinase activity | almost totally inactive | > 10 | > 10 | 7.19 ± 2.5 | > 10 | > 10 | > 10 | > 10 | > 10 | > 10 | > 10 | > 10 | – |
| C=CC(=O)N1C[C@H](Nc2ncnc3[nH]ccc23)CC[C@@H]1C [PF-06651600, ritlecitinib] | – | – | > 10 | > 10 | 0.03 ± 0.01 | > 10 | 0.027 ± 0.004 | > 10 | > 10 | > 10 | > 10 | > 10 | > 10 | potency against JAK1 less than against JAK3 (JAK1): approximately 3,000 fold; cell cycle arrest (U937 cells [1]; PF-06651600 treatment): dose-dependent G0/G1 phase cell cycle arrest; cell fate or phenotypes (OCI-LY3 cells): did not obviously affect the cell fate or the phenotypes; apoptosis (U937 cells [2]): inducing apoptosis only barely; activation of JAK3 and the downstream signals [3]: potently suppressed the activation of JAK3 and the downstream signals in a dose-dependent manner; downstream signaling factors of JAK3 [4]: inhibited the downstream signaling factors of JAK3; phosphorylation of JAK3 [4]: enhanced the phosphorylation of JAK3 |
| NC(=O)c1cnc2[nH]ccc2c1N[C@@H]1[C@@H]2CC3C[C@H]1C[C@@](O)(C3)C2 [Peficitinib] | – | – | 0.6 ± 0.08 | 1.29 ± 0.09 | 0.1 ± 0.05 | 1.56 ± 0.09 | 0.09 ± 0.02 | 5.82 ± 0.15 | 4.93 ± 1.22 | 2.22 ± 0.08 | 2.32 ± 0.82 | 9.19 ± 0.98 | 3.42 ± 0.01 | – |
| N#CC[C@H](C1CCCC1)n1cc(-c2ncnc3[nH]ccc23)cn1 [Ruxolitinib] | reasonable inhibition of JAK3 | sub-micromole antiproliferative activity | – | – | – | – | 0.7 ± 0.11 | > 10 | > 10 | > 10 | > 10 | > 10 | > 10 | – |
| CC[C@@H]1CN(C(=O)NCC(F)(F)F)C[C@@H]1c1cnc2cnc3[nH]ccc3n12 [Upadacitinib] | – | – | 0.075 ± 0.008 | 0.18 ± 0.01 | 0.098 ± 0.047 | 0.9 ± 0.12 | 0.25 ± 0.03 | > 10 | > 10 | > 10 | > 10 | > 10 | > 10 | – |
| Si-JAK3: Synthetic JAK3 small interfering RNA from RiboBio; si-JAK3: 5′-GCAGACACTTAGCTTGGAA-3′ (chemistry not fully specified) | – | – | – | – | – | – | – | – | – | – | – | – | – | cell cycle arrest (U937 cells [1]; JAK3 siRNA): induced G0/G1 phase arrest; activation of JAK3-STAT3/5 signal pathway ([3]; JAK3 siRNA for 72 h): suppressed activation of JAK3-STAT3/5 signal pathway |
